Counter-ions that a name gives are not always drawn.

In the experiment the target is T1, PHD2 (Homo sapiens, UniProt Q9GZT9).
T1 construct: FLAG-tagged full length PHD2 expressed in and purified from baculovirus-infected Sf9 cells; FLAG; made in house; host or cells: baculovirus-infected Sf9 cells
T1 sequence (Q9GZT9 whole entry): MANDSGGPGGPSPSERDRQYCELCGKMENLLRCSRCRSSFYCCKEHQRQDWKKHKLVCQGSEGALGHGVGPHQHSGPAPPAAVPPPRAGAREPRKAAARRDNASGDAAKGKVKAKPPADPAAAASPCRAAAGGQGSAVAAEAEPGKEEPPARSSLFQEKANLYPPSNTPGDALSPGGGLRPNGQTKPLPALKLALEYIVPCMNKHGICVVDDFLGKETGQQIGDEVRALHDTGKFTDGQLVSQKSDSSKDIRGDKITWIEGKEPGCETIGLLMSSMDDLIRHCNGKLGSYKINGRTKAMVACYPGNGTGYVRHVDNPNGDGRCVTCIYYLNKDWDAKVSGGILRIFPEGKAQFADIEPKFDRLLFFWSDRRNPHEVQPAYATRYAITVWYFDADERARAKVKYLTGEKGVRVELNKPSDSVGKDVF
Nature of the experiment: PHD2 / HIF-1α peptide hydroxylation assay, time resolved fluorescence (VHL complex detection). Conditions: FLAG-tagged full length PHD2; 0.2 μM 2-oxoglutarate, 0.5 μM HIF-1α peptide; read-out: PHD2 Activity (PHD2 binding activity expressed as IC50 (nM)). The class given is biochemical. The method, then: To each well of a 96-well plate was added 1 μL of test compound in DMSO and 20 μl of assay buffer (50 mM Tris pH 7.4/0.01% Tween-20/0.1 mg/ml bovine serum albumin/10 μM ferrous sulfate/1 mM sodium ascorbate/20 μg/ml catalase) containing 0.15 μg/ml FLAG-tagged full length PHD2 expressed in and purified from baculovirus-infected Sf9 cells. After a 30 min preincubation at room temperature, the enzymatic reactions were initiated by the addition of 4 μL of substrates (final concentrations of 0.2 μM 2-oxoglutarate and 0.5 μM HIF-1α peptide biotinyl-[…]).
In general, IC50 refers to the concentration needed to halve the response being measured. Consider `O=C(NCc1cccc2ccccc12)c1cnc(-n2cccn2)nc1O` [Example 56, 4-Hydroxy-N-(1-naphthylmethyl)-2-(1H-pyrazol-1-yl)pyrimidine-5-carboxamide], for which the IC50 was 10 to 100 nM. Regarding `O=C(NC1CCc2ccccc21)c1cnc(-n2cccn2)nc1O` (centres unmarked) [Example 57, N-(2,3-dihydro-1H-inden-1-yl)-4-hydroxy-2-(1H-pyrazol-1-yl)pyrimidine-5-carboxamide], the IC50 lay within 10 to 100 nM. In the case of `O=C(NC(c1ccccc1)c1ccncc1)c1cnc(-n2cccn2)nc1O` (centres unmarked) [Example 58, 4-Hydroxy-N-[phenyl(pyridin-4-yl)methyl]-2-(1H-pyrazol-1-yl)pyrimidine-5-carboxamide], the IC50 is at most 10 nM. As to `O=C(NCc1ccc(Cl)nc1)c1cnc(-n2cccn2)nc1O` [Example 59, N-[(6-chloropyridin-3-yl)methyl]-4-hydroxy-2-(1H-pyrazol-1-yl)pyrimidine-5-carboxamide], the half-maximal inhibitory concentration (IC50) lay within 10 to 100 nM.

Turning to `O=C(NCc1ccc(-c2ccccc2Cl)cc1)c1cnc(-n2cccn2)nc1O` [Example 62, N-[(2′-chlorobiphenyl-4-yl)methyl]-4-hydroxy-2-(1H-pyrazol-1-yl)pyrimidine-5-carboxamide], the half-maximal inhibitory concentration (IC50) was at most 10 nM. Consider `O=C(NCc1ccc(-c2ccc(F)cc2)cc1)c1cnc(-n2cccn2)nc1O` [Example 63, N-[(4′-fluorobiphenyl-4-yl)methyl]-4-hydroxy-2-(1H-pyrazol-1-yl)pyrimidine-5-carboxamide], for which the half-inhibitory concentration (IC50) is at most 10 nM. To `O=C(NCc1cnc(Cl)cn1)c1cnc(-n2cccn2)nc1O` [Example 64, N-[(5-chloropyrazin-2-yl)methyl]-4-hydroxy-2-(1H-pyrazol-1-yl)pyrimidine-5-carboxamide] belongs 10 to 100 nM. To `O=C(NCc1cc(C(F)(F)F)cc(C(F)(F)F)c1)c1cnc(-n2cccn2)nc1O` [Example 65, N-[3,5-bis(trifluoromethyl)benzyl]-4-hydroxy-2-(1H-pyrazol-1-yl)pyrimidine-5-carboxamide] belongs 100 to 1000 nM.

With `Cc1cnc(CNC(=O)c2cnc(-n3cccn3)nc2O)cn1` [Example 66, 4-Hydroxy-N-[(5-methylpyrazin-2-yl)methyl]-2-(1H-pyrazol-1-yl)pyrimidine-5-carboxamide], the half-inhibitory concentration (IC50) fell in the range of 100 to 1000 nM.

Take `O=C(NC(Cc1ccccc1)c1ccccc1)c1cnc(-n2cccn2)nc1O` (centres unmarked) [Example 67, N-(1,2-diphenylethyl)-4-hydroxy-2-(1H-pyrazol-1-yl)pyrimidine-5-carboxamide]: the concentration for half-maximal inhibition (IC50) was at most 10 nM. Next, `O=C(NCc1ccc(C(F)(F)F)cc1F)c1cnc(-n2cccn2)nc1O` [Example 68, N-[2-fluoro-4-(trifluoromethyl)benzyl]-4-hydroxy-2-(1H-pyrazol-1-yl)pyrimidine-5-carboxamide]: 10 to 100 nM. To `CC(C)(NC(=O)c1cnc(-n2cccn2)nc1O)c1ccc(F)cc1` [Example 73, N-[1-(4-fluorophenyl)-1-methylethyl]-4-hydroxy-2-(1H-pyrazol-1-yl)pyrimidine-5-carboxamide] belongs at most 10 nM; to `CC(C)(NC(=O)c1cnc(-n2cccn2)nc1O)c1ccc(C(F)(F)F)nc1` [Example 74, 4-Hydroxy-N-{1-methyl-1-[6-(trifluoromethyl)pyridin-3-yl]ethyl}-2-(1H-pyrazol-1-yl)pyrimidine-5-carboxamide], at most 10 nM; to `CCN(NC(=O)c1cnc(-n2cccn2)nc1O)c1ccccc1` [Example 76, N′-Ethyl-4-hydroxy-N′-phenyl-2-(1H-pyrazol-1-yl)pyrimidine-5-carbohydrazide trifluoroacetate (salt)], 10 to 100 nM. As for `Cc1ccc(CNC(=O)c2cnc(-n3cccn3)nc2O)cc1` [Example 77, 4-Hydroxy-N-(4-methylbenzyl)-2-(1H-pyrazol-1-yl)pyrimidine-5-carboxamide], the IC50 lay within 10 to 100 nM. To `Cc1ccc([C@@H](C)NC(=O)c2cnc(-n3cccn3)nc2O)cc1` [Example 78, 4-Hydroxy-N-[(1R)-1-(4-methylphenyl)ethyl]-2-(1H-pyrazol-1-yl)pyrimidine-5-carboxamide] belongs 10 to 100 nM. To `Cc1ccc([C@H](C)NC(=O)c2cnc(-n3cccn3)nc2O)cc1` [Example 79, 4-Hydroxy-N-[(1S)-1-(4-methylphenyl)ethyl]-2-(1H-pyrazol-1-yl)pyrimidine-5-carboxamide] belongs at most 10 nM; to `O=C(NN1CCCCC1)c1cnc(-n2cccn2)nc1O` [Example 80, 4-hydroxy-N-piperidin-1-yl-2-(1H-pyrazol-1-yl)pyrimidine-5-carboxamide trifluoroacetate (salt)], 10 to 100 nM; to `O=C(c1cnc(-n2cccn2)nc1O)N1CCCCC1` [Example 81, 5-(Piperidin-1-ylcarbonyl)-2-(1H-pyrazol-1-yl)pyrimidin-4-ol], 1000 to 10000 nM. Take `CC(C)(C)C1CCC(NC(=O)c2cnc(-n3cccn3)nc2O)CC1` (centres unmarked) [Example 82, N-(4-tert-butylcyclohexyl)-4-hydroxy-2-(1H-pyrazol-1-yl)pyrimidine-5-carboxamide]: the IC50 was 10 to 100 nM. To `O=C(N[C@@H]1CONC1=O)c1cnc(-n2cccn2)nc1O` [Example 83, 4-Hydroxy-N-[(4R)-3-oxoisoxazolidin-4-yl]-2-(1H-pyrazol-1-yl)pyrimidine-5-carboxamide] belongs 100 to 1000 nM; to `C[C@@H](NC(=O)c1cnc(-n2cccn2)nc1O)C1CCCCC1` [Example 84, N-[(1R)-1-cyclohexylethyl]-4-hydroxy-2-(1H-pyrazol-1-yl)pyrimidine-5-carboxamide], 10 to 100 nM; to `C[C@H](NC(=O)c1cnc(-n2cccn2)nc1O)C1CCCCC1` [Example 85, N-[(1S)-1-cyclohexylethyl]-4-hydroxy-2-(1H-pyrazol-1-yl)pyrimidine-5-carboxamide], 10 to 100 nM.

Regarding `CC(NC(=O)c1cnc(-n2cccn2)nc1O)c1ccncc1` (centres unmarked) [Example 86, 4-hydroxy-2-(1H-pyrazol-1-yl)-N-(1-pyridin-4-ylethyl)pyrimidine-5-carboxamide trifluoroacetate (salt)], the 50% inhibitory concentration (IC50) is at most 10 nM. To `O=C(NC1(c2ccccc2)CC1)c1cnc(-n2cccn2)nc1O` [Example 87, 4-Hydroxy-N-(1-phenylcyclopropyl)-2-(1H-pyrazol-1-yl)pyrimidine-5-carboxamide] belongs at most 10 nM. To `CC(C)(NC(=O)c1cnc(-n2cccn2)nc1O)c1ccc(F)c(F)c1` [Example 89, N-[1-(3,4-difluorophenyl)-1-methylethyl]-4-hydroxy-2-(1H-pyrazol-1-yl)pyrimidine-5-carboxamide] belongs at most 10 nM; to `CC(NC(=O)c1cnc(-n2cccn2)nc1O)[C@]12C[C@H]3C[C@H](C[C@H](C3)C1)C2` (stereo partly drawn) [Example 90, N-{(1R)-1-[(3S,5S,7S)-1-adamantyl]ethyl}-4-hydroxy-2-(1H-pyrazol-1-yl)pyrimidine-5-carboxamide], 10 to 100 nM. For the compound `C[C@H](NC(=O)c1cnc(-n2cccn2)nc1O)c1ccc(Br)cc1` [Example 91, N-[(1S)-1-(4-bromophenyl)ethyl]-4-hydroxy-2-(1H-pyrazol-1-yl)pyrimidine-5-carboxamide], the IC50 was at most 10 nM. On to `CC(C)(NC(=O)c1cnc(-n2cccn2)nc1O)c1ccc(Br)cc1` [Example 92, N-[1-(4-bromophenyl)-1-methylethyl]-4-hydroxy-2-(1H-pyrazol-1-yl)pyrimidine-5-carboxamide], for which the half-maximal inhibitory concentration (IC50) is at most 10 nM. Next, `O=C(NCc1ccc(Oc2ccccc2)cc1)c1cnc(-n2cccn2)nc1O` [Example 93, 4-hydroxy-N-(4-phenoxybenzyl)-2-(1H-pyrazol-1-yl)pyrimidine-5-carboxamide]: at most 10 nM. To `O=C(NC1(c2ccccc2)CCCCC1)c1cnc(-n2cccn2)nc1O` [Example 94, 4-hydroxy-N-(1-phenylcyclohexyl)-2-(1H-pyrazol-1-yl)pyrimidine-5-carboxamide] belongs at most 10 nM; to `O=C(c1ccccc1)c1ccc(CNC(=O)c2cnc(-n3cccn3)nc2O)cc1` [Example 95, N-(4-benzoylbenzyl)-4-hydroxy-2-(1H-pyrazol-1-yl)pyrimidine-5-carboxamide], at most 10 nM.

Take `Cc1ccc(Oc2ccc(CNC(=O)c3cnc(-n4cccn4)nc3O)cc2)cc1` [Example 97, 4-hydroxy-N-[4-(4-methylphenoxy)benzyl]-2-(1H-pyrazol-1-yl)pyrimidine-5-carboxamide]: the 50% inhibitory concentration (IC50) was at most 10 nM. Next, `CCC(CC)(NC(=O)c1cnc(-n2cccn2)nc1O)c1ccccc1` [Example 98, N-(1-ethyl-1-phenylpropyl)-4-hydroxy-2-(1H-pyrazol-1-yl)pyrimidine-5-carboxamide]: at most 10 nM; `O=C(NCc1ccc(Oc2ccc(F)cc2)cc1)c1cnc(-n2cccn2)nc1O` [Example 99, N-[4-(4-fluorophenoxy)benzyl]-4-hydroxy-2-(1H-pyrazol-1-yl)pyrimidine-5-carboxamide]: at most 10 nM. As for `Cc1ccccc1Oc1ccc(CNC(=O)c2cnc(-n3cccn3)nc2O)cc1` [Example 100, 4-hydroxy-N-[4-(2-methylphenoxy)benzyl]-2-(1H-pyrazol-1-yl)pyrimidine-5-carboxamide], the IC50 was at most 10 nM. To `O=C(NCc1ccc2c(c1)CCO2)c1cnc(-n2cccn2)nc1O` [Example 101, N-(2,3-dihydro-1-benzofuran-5-ylmethyl)-4-hydroxy-2-(1H-pyrazol-1-yl)pyrimidine-5-carboxamide] belongs at most 10 nM; to `O=C(NC1c2ccccc2-c2ccccc21)c1cnc(-n2cccn2)nc1O` [Example 102, N-9H-fluoren-9-yl-4-hydroxy-2-(1H-pyrazol-1-yl)pyrimidine-5-carboxamide], at most 10 nM.

These data come from patent US8278304B2, “Substituted 4-hydroxypyrimidine-5-carboxamides” (Merck Sharp & Dohme Corp., priority 2008, dated 2012).
